Experimental findings from patent US8653071B2, “α4β2 neuronal nicotinic acetylcholine receptor ligands” (Suven Life Sciences Limited, priority 2009, dated 2014) are described below.

The test system of test [1] is Male Wister rats. Briefly: Acute food intake study (animal model of hyperphagia). The format is in vivo, rat. As to conditions: oral. The procedure: The appetite suppressing properties of compounds of this invention were studied using an animal model of hyperphagia.
Male Wister rats (200-210 grams) obtained from Raj Biotech, India were used as experimental animals. The experiment consisted of 6 days. The rats were adapted to the 18 hour fasting and 6 hour feeding pattern. The animals were housed in a group of three in the cages provided with the fasting grills and were fasted for 18 hours. After 18 hour fasting the rats were separated and placed individually in a cage. Weighed amount of feed was provided to rats for 6 hour and the feed intake at 1, 2, 4 and 6 hours was recorded. Again the rats were regrouped and fasted for 18 hour. The above procedure was followed for 5 days. The average cumulative food intake by the rats on the last 3 days was calculated. Animals were randomised on the basis of their last three days food intake.
One group of 8 rats received vehicle (2 mL/Kg) orally and another set of animals received compound of the formula (I) orally. Then the rats were given access to food and the food intake at 1, 2, 4 and 6 hours was recorded. The food intake by the rats treated with test compound was compared with the vehicle treated group by using students‘t’ test.

The test system of test [2] is Male Wister rats. Nature of the test: Reversal of formalin induced nociception. The format is in vivo. The settings on record: p.o.; rat. The procedure:
Reversal of Formalin Induced Nociception
The anti-nociceptive properties of compounds of this invention were evaluated using a model of pain: the Formalin Induced Nociception model. Male Wister rats (230-280 grams) obtained from N. I. N. (National Institute of Nutrition, Hyderabad, India) was used as experimental animals.
Rats were habituated for 20 minutes in the arena before the experiment was started. Duration of licks, bites and flinches were noted from 0-10 minutes and 20-35 minutes after administration of formalin, subplantar into the right hind paw at concentrations of 5% v/v. 50 μL of water for injection was injected into the right hind paw of the rats of the sham group. Compounds of this invention were administered orally prior to formalin administration.

On to `CNCC1CC2CC2N1c1cccnc1.Cl` (stereo not drawn) [Example 4, N-[2-(Pyridin-3-yl)-2-azabicyclo[3.1.0]hex-3-ylmethyl]methylamine hydrochloride], for which the Inference result in the test on Male Wister rats [1] was “Active”. For the same molecule, the “% Suppression of food intake compared to vehicle, 1 Hour” value with Male Wister rats [1] (1 Hour, 18 hour fasted rats) was determined as 38.45%. In addition, the “% Suppression of food intake compared to vehicle, 2 Hour” value in the test on Male Wister rats [1] (2 Hour, 18 hour fasted rats) is given as 30.23%. Further, the “% Suppression of food intake compared to vehicle, 4 Hour” value with Male Wister rats [1] (4 Hour, 18 hour fasted rats) was 25.60%. Moreover, the “% Suppression of food intake compared to vehicle, 6 Hour” value in the test on Male Wister rats [1] (6 Hour, 18 hour fasted rats) is reported as 18.63%. In addition, the “Dose (reversal of formalin induced nociception)” value in the test with Male Wister rats [2] was “≦10 mg/kg, p.o”.
